US20200062719A1, “Application of Imidazopyridine Derivatives in Regenerative Medicine” (University of Heidelberg, priority 2018, published 2020)

What was measured:
neural stem cells = test: Maintenance of neural stem cells, MTT viability; type: cell-based; settings: starting from 1 nM
Protocol: Neural stem cells were cultivated in SPN medium (DMEM-F12 Knockout medium containing 2% StemPro® NSC SFM, EGF (20 ng/mL) and FGF (20 ng/mL)) until cell confluence reached 80-90%. Acutase was used to get single cell suspension and washed with PBS. 20,000 cells/[…] were seeded into matrigel-coated plates using SPN medium with or without O4I3. The MTT assay was applied to determine cell viability.
The self-renewal of multipotent neural stem cells was also tested with the compound of the current invention. Neural stem cells were cultivated in SPN medium with or without O4I3 at different final concentrations (FIG. 7). The MTT assay was applied to determine cell viability. Starting from a concentration of 1 nM O4I3 the viability of neural stem cells was increased in comparison to mock treated neural stem cells.

[1] = system: reprogramming-related proteins; test: Phosphorylation microarray in NCCIT and JoPaca-1 cells; type: cell-based; settings: NCCIT and JoPaca-1, 1 μM, 24 hours
Protocol: Cells were analysed in the presence (24 hours O4I3 1 μM) or absence (NT) of O4I3.
The cellular responses to O4I3 was analyzed in two stem cell lines, NCCIT and JoPaca-1 (FIG. 10).

promoter of Oct4 = test: ChIP-qPCR of H3K4Me3 at the promoter of Oct4 in reprogramming-resistant fibroblasts; type: cell-based, human; settings: reprogramming-resistant patient fibroblasts
Text: The importance of active tri-methylation of histone H3 lysine 4 (H3K4Me3) in promoting transcription factors binding to an ‘open’ chromatin state and thereby initiation of reprogramming is known in the art. In good agreement, the inventors found the abundance of H3K4Me3 in O4I3-treated reprogramming-resistant fibroblasts by immunostaining (FIG. 14) and immunoblotting (FIG. 5B). To directly study if O4I3 facilitated the binding of H3K4Me3 to the promoter of Oct4, a CHIP-qPCR experiment was performed.
In reprogramming-resistant HF4, the level of H3K4Me3 at the promoter of OCT4 was increased by OSKM, but was still nearly 1,000-fold lower than that in PSCs (FIG. 19A). […] However, a clear influence on H3K4 methylation was not observed in the presence of KDM5B-, KDM5C-, or KDM5D-siRNA (FIG. 19A). […] Indeed, the reprogramming efficiency is negatively correlated with the expression of KDM5A in 11 HFs (FIG. 19D). Moreover, KDM5A siRNA increased the global level of H3K4Me3 in a dose-dependent manner (FIG. 19E). Of note, the alternation in the occupation of H3K27Me3 at the promoter of OCT4 was more refractory to chemical inhibition or genetic repression of KDM5s in the inventors' experiments (FIG. 19B). […]

KDM4 [2] = target: T1, KDM4; test: KDM4 (JMJD2) demethylase inhibition, nuclear extraction; type: biochemical; settings: whole-cell nuclear extraction
T1 construct: other: whole-cell nuclear extraction; other: micromolar concentrations
Text: (§1) HMT and HDM are two major classes of enzymes, contributing to the regulation of histone methylation. Lysine-specific demethylase 1 (LSD1) and histone lysine demethylase 5 (KDM5, also known as JARID1) majorly catalyze demethylation of H3K4. A few KDM5 chemical inhibitors have been reported to inhibit demethylation of H3K4, leading to an increase of global methylated H3K4 in various cell types. The inventors tested the inhibitory effect of O4I3 on LSD1 and KDM5. KDM4 (also known as JMJD2), the HDM of H3K9 and H3K36, was also included.
(§2) Epiquik histone demethylase (H3K4 specific) activity/inhibition assay kit (Epigentek, Biocat, Germany) was used to measure the protective effect of O4I3 and zolpidem on the methylation of H3K4. Their inhibitory effects on LSD1, KDM5s, and KDM4 were determined using Epigenase jarid demethylase activity/inhibition assay kit, Epigenase JMJD2 demethylase activity/inhibition assay kit and EpiQuik histone demethylase LSD1 activity/inhibition assay kit (Epigentek, Biocat, Germany). The total nuclear extraction was used according to manufacturer's instructions. For measuring KDM5A, KDM5B, KDM5C, and KDM5D activity, magnetic beads were used to immunoprecipitate the respective enzymes from 10^8 cells according to the manufacturer's instructions (Cell Signaling Technologies).

KDM4 [3] = test: as above; type: biochemical
Text: as §1, §2

KDM5 = KDM5 demethylase inhibition, whole-cell nuclear extraction; type: biochemical; settings: whole-cell nuclear extraction
Text: as §1, §2

Oct4 = test: Luciferase reporter assay in NCCIT-Oct4 cells; type: cell-based, human; settings: O4I3 1 nM, a 10,000-fold lower concentration; both reporter cell lines
iPSCs = test: qRT-PCR gene expression in iPSCs; type: cell-based, human; settings: 50 nM, 24 h
Protocol: A) O4I3 promoted the viability of hiPSCs in single cell expansion. B) Homogeneous expression of […] and Oct4 up to passage (p) 30 in hiPSCs treated with 50 nM O4I3 analyzed by FACS C) Relative fold changes to non-treatment in hiPSCs treated with O4I3 (50 nM) for 24 h analyzed by qRT-PCR. D) Gene expression profiling analysis of functional annotation enrichment for categories related to pluripotency, development and homeostasis in O4I3-treated iPSCs for 24 h. Data are represented as mean±SD from at least 3 independent experiments ***: p<0.001; **: p<0.01; *: p<0.05.
Quantitative reverse-transcription real-time-PCR was performed using a Light Cycler 96 (Roche, Germany) following the manufacturer's protocol. Briefly, total RNA was isolated from cells using TRIzol (Qiagen, Germany) or NucleoSpin®RNA Plus (Macherey-Nagel, Germany). The same amount of RNA was used to reverse-transcriptional synthesize cDNA by using random primers ProtoScript® First Strand cDNA Synthesis Kit (NEB, Germany). qPCR was performed using the SYBR Green PCR master mix (qPCRBIO SyGreen Mix Lo-Rox, Nippon Genetics, Germany) and the primer pairs indicated below (MWG, Eurofins, Germany). Actin was used as an endogenous control. Data were normalized to the value of untreated cells showing the mean±SD of quadruplicates and are representative of at least three independent experiments.

Cc1ccc(-c2cn3cc(C)ccc3n2)cc1 [O4I3, 6-methyl-2-(p-tolyl)imidazo[1,2-a]pyridine]
viability of neural stem cells in comparison to mock treated (neural stem cells): increased | activation of Erk1 [1]: selectively activated | activation of Erk2 [1]: not | enrichment of H3K4Me3 at the promoter of Oct4 (promoter of Oct4): increased enrichment | IC50 (KDM4 [2]): 0.249 µM | less potency on KDM4 than on KDM5 (KDM4 [3]): 500 fold | IC50 (KDM5): 0.00079 µM | induction versus zolpidem at 10 μM (Oct4): comparable induction | expression of pluripotency-associated genes (iPSCs): stabilized or slightly increased
